{
  "source": "paper PMC12198282",
  "about": "“Application of a high-density microelectrode array assay using a 3D human iPSC-derived brain microphysiological system model for in vitro neurotoxicity screening of environmental compounds” (Archives of Toxicology, 2025)",
  "key": {"[1]": {"tested_on": "2D rat cortical cultures", "conditions": "rNFA mc5 hit call; cytotoxicity LDH; cited from earlier work"}, "[2]": {"tested_on": "2D rat cortical cultures", "conditions": "rNFA mc5 hit call; cytotoxicity AlamarBlue; cited from earlier work"}, "[3]": {"tested_on": "human iPSC-derived 3D BrainSpheres", "experiment": "BrainSphere MEA assay (HD-MEA, 13-day exposure, concentration-response)", "assay_type": "cell-based", "conditions": "for EC (benchmark response 1.349 SD): 312 h; for AC50: concentration at 50% maximal activity, Supplement 3 prints it also for curves with hit call 0", "in_short": "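7-week-differentiated BrainSpheres were plated on laminin/poly-D-lysine-coated HD-MEA chips and given 2 days to attach. Neural activity was recorded from the same regions of interest through a 13-day exposure, from day 0 onward. Ten network and general activity endpoints were derived per BrainSphere, with ≥3 biological replicates.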"}, "[4]": {"tested_on": "2D rat cortical cultures", "conditions": "cited from earlier work; for AC50: rNFA mc5"}, "[5]": {"conditions": "AUC over 13-day exposure, tcplfit2"}, "[6]": {"conditions": "tcplfit2 BMD at benchmark response (1.349*SD of baseline controls)"}, "[7]": {"conditions": "tcplfit2 output ACC, activity cutoff in Supplemental Table 1"}},
  "note": "Like-named read-outs stand apart in the source and are kept apart here.",
  "data": [
    {"smiles": "CC(C)(c1ccc(O)cc1)c1ccc(O)cc1", "note": "[Bisphenol A]", "values": [
      {"measurement": "hitc CCTE_Shafer_MEA_dev_LDH", "setting": "[1]", "value": 0},
      {"measurement": "hitc CCTE_Shafer_MEA_dev_AB", "setting": "[2]", "value": 0},
      {"measurement": "Difference of minimum potency between BrainSphere MEA assay and rNFA", "setting": "[3]; 5th percentile of AC50 values by chemical, above 0.5 = more potent in the rNFA", "value": "≤ 0.5", "unit": "log10 µM"},
      {"measurement": "hitc Mean.Spheroid.Burst.Duration", "setting": "[3]; [5]", "value": 1},
      {"measurement": "hitc Mean.Spheroid.Burst.ISI", "setting": "[3]; [5]", "value": 1},
      {"measurement": "hitc Mean.Spheroid.Burst.Peak.Firing.Rate", "setting": "[3]; [5]", "value": 1},
      {"measurement": "hitc Mean.Spheroid.Firing.Rate", "setting": "[3]; [5]", "value": 1},
      {"measurement": "hitc Mean.Spheroid.IBI", "setting": "[3]; [5]", "value": 1},
      {"measurement": "hitc Mean.Spheroid.Nonburst.ISI", "setting": "[3]; [5]", "value": 0},
      {"measurement": "hitc Mean.Spheroid.Spikes.per.Burst", "setting": "[3]; [5]", "value": 1},
      {"measurement": "hitc Mean.Spheroid.Spikes.per.Burst.per.Electrode", "setting": "[3]; [5]", "value": 1},
      {"measurement": "hitc Spheroid.Burst.Frequency", "setting": "[3]; [5]", "value": 1},
      {"measurement": "hitc Spheroid.Spike.Amplitude.90th.Percentile", "setting": "[3]; [5]", "value": 1},
      {"measurement": "EC50", "setting": "[3]; Homo sapiens, 5th percentile across active AC50 values per chemical, read-out: Minimum potency", "value": 29.1, "unit": "µM"},
      {"measurement": "EC (benchmark response 1.349 SD)", "setting": "[3]; Homo sapiens, tcplfit2 BMD at benchmark response (1.349*SD of baseline controls), read-out: BMD Mean.Spheroid.Burst.ISI", "value": 27, "unit": "µM"},
      {"measurement": "EC (benchmark response 1.349 SD)", "setting": "[3]; Homo sapiens, tcplfit2 BMD at benchmark response (1.349*SD of baseline controls), read-out: BMD Mean.Spheroid.Nonburst.ISI", "value": 50, "unit": "µM"},
      {"measurement": "AC50", "setting": "[3]; Homo sapiens, read-out: ac50 Mean.Spheroid.Burst.Duration", "value": 29.4, "unit": "µM"},
      {"measurement": "AC50", "setting": "[3]; Homo sapiens, read-out: ac50 Mean.Spheroid.Burst.ISI", "value": 29.2, "unit": "µM"},
      {"measurement": "AC50", "setting": "[3]; Homo sapiens, read-out: ac50 Mean.Spheroid.Burst.Peak.Firing.Rate", "value": 30, "unit": "µM"},
      {"measurement": "AC50", "setting": "[3]; Homo sapiens, read-out: ac50 Mean.Spheroid.Firing.Rate", "value": 29, "unit": "µM"},
      {"measurement": "AC50", "setting": "[3]; Homo sapiens, read-out: ac50 Mean.Spheroid.IBI", "value": 45, "unit": "µM"},
      {"measurement": "AC50", "setting": "[3]; Homo sapiens, read-out: ac50 Mean.Spheroid.Nonburst.ISI", "value": 45, "unit": "µM"},
      {"measurement": "AC50", "setting": "[3]; Homo sapiens, read-out: ac50 Mean.Spheroid.Spikes.per.Burst", "value": 45, "unit": "µM"},
      {"measurement": "AC50", "setting": "[3]; Homo sapiens, read-out: ac50 Mean.Spheroid.Spikes.per.Burst.per.Electrode", "value": 29.1, "unit": "µM"},
      {"measurement": "AC50", "setting": "[3]; Homo sapiens, read-out: ac50 Spheroid.Burst.Frequency", "value": 45, "unit": "µM"},
      {"measurement": "AC50", "setting": "[3]; Homo sapiens, read-out: ac50 Spheroid.Spike.Amplitude.90th.Percentile", "value": 45, "unit": "µM"},
      {"measurement": "EC50", "setting": "[3]; Homo sapiens, mean across active AC50 values per chemical, read-out: Mean potency", "value": 36.3, "unit": "µM"},
      {"measurement": "AC50", "setting": "[3]; read-out: ac50 Mean.Spheroid.Burst.Peak.Firing.Rate", "value": 29.6, "unit": "µM"},
      {"measurement": "AC50", "setting": "[3]; read-out: ac50 Mean.Spheroid.Firing.Rate", "value": 29.3, "unit": "µM"},
      {"measurement": "Percent active", "setting": "[3]; metrics active out of the total number of metrics screened", "value": 90, "unit": "%"},
      {"measurement": "BMD Mean.Spheroid.Burst.Duration", "setting": "[3]; [6]", "value": 28, "unit": "µM"},
      {"measurement": "BMD Mean.Spheroid.Burst.Peak.Firing.Rate", "setting": "[3]; [6]", "value": 28, "unit": "µM"},
      {"measurement": "BMD Mean.Spheroid.Firing.Rate", "setting": "[3]; [6]", "value": 30, "unit": "µM"},
      {"measurement": "BMD Mean.Spheroid.IBI", "setting": "[3]; [6]", "value": 31, "unit": "µM"},
      {"measurement": "BMD Mean.Spheroid.Spikes.per.Burst", "setting": "[3]; [6]", "value": 40, "unit": "µM"},
      {"measurement": "BMD Mean.Spheroid.Spikes.per.Burst.per.Electrode", "setting": "[3]; [6]", "value": 28, "unit": "µM"},
      {"measurement": "BMD Spheroid.Burst.Frequency", "setting": "[3]; [6]", "value": 47, "unit": "µM"},
      {"measurement": "BMD Spheroid.Spike.Amplitude.90th.Percentile", "setting": "[3]; [6]", "value": 33, "unit": "µM"},
      {"measurement": "ACC Mean.Spheroid.Burst.Duration", "setting": "[3]; [7]", "value": 27, "unit": "µM"},
      {"measurement": "ACC Mean.Spheroid.Burst.ISI", "setting": "[3]; [7]", "value": 26, "unit": "µM"},
      {"measurement": "ACC Mean.Spheroid.Burst.Peak.Firing.Rate", "setting": "[3]; [7]", "value": 28, "unit": "µM"},
      {"measurement": "ACC Mean.Spheroid.Firing.Rate", "setting": "[3]; [7]", "value": 31, "unit": "µM"},
      {"measurement": "ACC Mean.Spheroid.IBI", "setting": "[3]; [7]", "value": 44, "unit": "µM"},
      {"measurement": "ACC Mean.Spheroid.Nonburst.ISI", "setting": "[3]; [7]", "value": 58, "unit": "µM"},
      {"measurement": "ACC Mean.Spheroid.Spikes.per.Burst", "setting": "[3]; [7]", "value": 50, "unit": "µM"},
      {"measurement": "ACC Mean.Spheroid.Spikes.per.Burst.per.Electrode", "setting": "[3]; [7]", "value": 29, "unit": "µM"},
      {"measurement": "ACC Spheroid.Burst.Frequency", "setting": "[3]; [7]", "value": 42, "unit": "µM"},
      {"measurement": "ACC Spheroid.Spike.Amplitude.90th.Percentile", "setting": "[3]; [7]", "value": 44, "unit": "µM"},
      {"measurement": "Hits", "setting": "[3]; total number of active endpoints out of 10 MEA activity metrics, 13-day exposure", "value": 9},
      {"measurement": "Number of active endpoints in the rNFA", "setting": "[4]; of 17 MEA endpoints, ref Brown et al. [2016], Carstens et al. [2022], Frank et al. [2017b], Shafer et al. [2019], ToxCast invitrodb (v4.2)", "value": "two"},
      {"measurement": "AC50", "setting": "[4]; aenm active_electrodes_number, read-out: ac50 CCTE_Shafer_MEA_dev_active_electrodes_number", "value": 15, "unit": "µM"},
      {"measurement": "AC50", "setting": "[4]; aenm bursting_electrodes_number, read-out: ac50 CCTE_Shafer_MEA_dev_bursting_electrodes_number", "value": 9.89, "unit": "µM"},
      {"measurement": "hitc CCTE_Shafer_MEA_dev_active_electrodes_number", "setting": "[4]; rNFA mc5 hit call, aenm active_electrodes_number", "value": 1},
      {"measurement": "hitc CCTE_Shafer_MEA_dev_burst_duration_mean", "setting": "[4]; rNFA mc5 hit call, aenm burst_duration_mean", "value": 0},
      {"measurement": "hitc CCTE_Shafer_MEA_dev_burst_rate", "setting": "[4]; rNFA mc5 hit call, aenm burst_rate", "value": 0},
      {"measurement": "hitc CCTE_Shafer_MEA_dev_bursting_electrodes_number", "setting": "[4]; rNFA mc5 hit call, aenm bursting_electrodes_number", "value": 1},
      {"measurement": "hitc CCTE_Shafer_MEA_dev_correlation_coefficient_mean", "setting": "[4]; rNFA mc5 hit call, aenm correlation_coefficient_mean", "value": 0},
      {"measurement": "hitc CCTE_Shafer_MEA_dev_firing_rate_mean", "setting": "[4]; rNFA mc5 hit call, aenm firing_rate_mean", "value": 0},
      {"measurement": "hitc CCTE_Shafer_MEA_dev_inter_network_spike_interval_mean", "setting": "[4]; rNFA mc5 hit call, aenm inter_network_spike_interval_mean", "value": 0},
      {"measurement": "hitc CCTE_Shafer_MEA_dev_interburst_interval_mean", "setting": "[4]; rNFA mc5 hit call, aenm interburst_interval_mean", "value": 0},
      {"measurement": "hitc CCTE_Shafer_MEA_dev_mutual_information_norm", "setting": "[4]; rNFA mc5 hit call, aenm mutual_information_norm", "value": 0},
      {"measurement": "hitc CCTE_Shafer_MEA_dev_network_spike_duration_std", "setting": "[4]; rNFA mc5 hit call, aenm network_spike_duration_std", "value": 0},
      {"measurement": "hitc CCTE_Shafer_MEA_dev_network_spike_number", "setting": "[4]; rNFA mc5 hit call, aenm network_spike_number", "value": 0},
      {"measurement": "hitc CCTE_Shafer_MEA_dev_network_spike_peak", "setting": "[4]; rNFA mc5 hit call, aenm network_spike_peak", "value": 0},
      {"measurement": "hitc CCTE_Shafer_MEA_dev_per_burst_interspike_interval", "setting": "[4]; rNFA mc5 hit call, aenm per_burst_interspike_interval", "value": 0},
      {"measurement": "hitc CCTE_Shafer_MEA_dev_per_burst_spike_percent", "setting": "[4]; rNFA mc5 hit call, aenm per_burst_spike_percent", "value": 0},
      {"measurement": "hitc CCTE_Shafer_MEA_dev_per_network_spike_spike_number_mean", "setting": "[4]; rNFA mc5 hit call, aenm per_network_spike_spike_number_mean", "value": 0},
      {"measurement": "hitc CCTE_Shafer_MEA_dev_per_network_spike_spike_percent", "setting": "[4]; rNFA mc5 hit call, aenm per_network_spike_spike_percent", "value": 0},
      {"measurement": "hitc CCTE_Shafer_MEA_dev_spike_duration_mean", "setting": "[4]; rNFA mc5 hit call, aenm spike_duration_mean", "value": 0}
    ]}
  ]
}
